In patent US20190110478A1, “ANTIBACTERIAL COMPOSITION, ANTIBACTERIAL FILM, ANTIBACTERIAL FILM-ATTACHED SUBSTRATE, METHOD FOR MANUFACTURING ANTIBACTERIAL FILM, AND METHOD FOR MANUFACTURING ANTIBACTERIAL FILM-ATTACHED SUBSTRATE” (FUJIFILM Corporation, priority 2016, published 2019):

Assay: Viscosity characteristics of water-insoluble nitrogen-containing compound (rotary viscometer)
Type: physicochemical
Details: 1% by mass solid content in propylene glycol monomethyl ether, 25° C.
Method: In a case in which a water-insoluble nitrogen-containing compound is dissolved in propylene glycol monomethyl ether to obtain a solution having a solid content of 1% by mass, the viscosity of the solution at 25° C. as measured using a rotary viscometer is 10 mPa·s or higher.

CC(C)(C)c1ccc(O)c(-n2nc3ccccc3n2)c1 [TINUVIN PS]
Viscosity of solution: 2.1 mPa·s
